Reference: patent publication US20190224347A1, “Detection of Renal Amyloidosis by Imaging with Stilbene or Phenylbenzothiazole Derivatives” (Mayo Foundation for Medical Education and Research, priority 2018, published 2019)

Biological target: T1, leucocyte cell-derived chemotaxin-2 (LECT2) amyloidosis (Homo sapiens, UniProt O14960)
T1 construct: biopsy-confirmed leucocyte cell-derived chemotaxin-2 (LECT2) amyloidosis underwent a positron emission tomography/computed tomography (PET/CT) scan with florbetapir; from tissue; host or cells: Living patient: amyloid deposits in lungs, spleen, adrenal glands, kidneys and bone marrow
T1 sequence (O14960 19-151): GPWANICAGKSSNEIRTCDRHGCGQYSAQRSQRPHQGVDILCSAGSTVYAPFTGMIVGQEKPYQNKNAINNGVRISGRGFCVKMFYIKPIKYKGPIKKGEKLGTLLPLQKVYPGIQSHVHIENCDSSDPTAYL
Assay: PET/CT scan with florbetapir 18F in a patient with biopsy-confirmed LECT2 amyloidosis
Type: in vivo
Method: Administration to the subject of a pharmaceutical composition including a radiolabeled stilbene derivative or phenylbenzothiazole derivative chosen from the compounds of Formulas (I) to (VII) above for in vivo detection of the accumulated compound in LECT2-based protein structures can be accomplished intravenously, intraarterially, intrathecally, intramuscularly, intradermally, subcutaneously, or intracavitary. Dosage can vary. In one non-limiting example, dosage may vary from 0.001 μg/kg to 10 μg/kg. In another non-limiting example, the dose for florbetapir may be 370 MBq (10 mCi), maximum 50 μg mass dose, administered as a single intravenous bolus in a total volume of 10 mL or less. The injection may be followed with an intravenous flush of 0.9% sterile sodium chloride. In the method of the invention, sufficient time is allowed after administration such that the radiolabeled stilbene derivative or phenylbenzothiazole derivative can accumulate in any LECT2-based protein structures.
A person with end stage renal disease on haemodialysis secondary to biopsy-confirmed leucocyte cell-derived chemotaxin-2 (LECT2) amyloidosis underwent a positron emission tomography/computed tomography (PET/CT) scan with florbetapir ^18F. […] These organs normally have low activity on florbetapir PET/CT. The activity pattern is consistent with pathological data on the distribution of amyloidosis in this disease. […] A remarkable finding in this patient is the uptake in the kidney because they make little urine and is on chronic haemodialysis.

- PET/CT activity in the heart (PET/CT, same patient, heart): normal background activity
Compound: CNc1ccc(/C=C/c2ccc(OCCOCCOCC[18F])nc2)cc1 [florbetapir ^18F]
- PET/CT activity in bone marrow (PET/CT, same patient, bone marrow): diffuse intense activity above normal background
- accumulation in LECT2-based protein structures (positron emission tomography): accumulates within LECT2-based protein structures
